Measured values taken from the METLIN SMRT retention time set (Domingo-Almenara et al. 2019).

Assay: gradient 5% acetonitrile 3 min, to 50% in 2 min, to 85% in 15 min, held 3 min, 100 µL/min
Details: column: Zorbax Extend-C18 2.1 x 50 mm; eluents: water / acetonitrile, 0.1% formic acid
Procedure, shortened: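 In both positive and negative ionization mode, a quadrupole time-of-flight mass spectrometer coupled to HPLC analyzed pure standards run in mixtures of ~100 molecules. The Zorbax Extend-C18 column (2.1 × 50 mm, 1.8 μm) was operated at 100 μL/min with water and acetonitrile, each containing 0.1% formic acid. The dead volume was 40 μL and the dwell volume 900 μL. Retention time came from adduct peaks that were computationally picked and individually inspected by hand.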

| Structure (SMILES) | RP-LC retention time |
| --- | --- |
| Cc1cc(C)cc(NC(=O)N2CCC3(CC2)NC(=O)c2cc(F)ccc2N3C)c1 | 769 s |
| CCOC(=O)c1ccc(NC(=O)c2ccc(=O)n(C)n2)cc1 | 693 s |
| COc1ccccc1-c1nc(-c2cn(Cc3cccc(F)c3)nn2)no1 | 936 s |
| O=C(Cn1cccn1)Nc1nc(-c2cccnc2)cs1 | 537 s |
| Cc1ccc(Cl)c(NC(=O)Cc2csc(C)n2)c1 | 687 s |
| Cc1ccccc1S(=O)(=O)N1CCC(Cc2nc3cccnc3n2CC(C)C)C1 (stereo unspecified) | 785 s |
| OCCN1CCN(CC(O)COCc2ccc(Cl)cc2)CC1 (stereo unspecified) | 530 s |
| CCNC(=O)CCc1nc2ccccc2n(CC(=O)NCc2ccc(OC)cc2)c1=O | 700 s |
| COc1ccc(NC(=O)C2CCN(S(C)(=O)=O)c3ccccc3O2)cc1 (stereo unspecified) | 824 s |
| Cc1cc2c(cc1S(=O)(=O)N1CCN(c3ccccn3)CC1)OCCN2C | 668 s |
| CC1CC(C)CN(CCCNC(=O)CCCn2c(=O)c3cccn3c3ccccc32)C1 (stereo unspecified) | 659 s |
| CCCn1cnc2cc(-c3noc(CNC(=O)c4ccccc4)n3)ccc21 | 667 s |
| Cc1cc(C)cc(C(=O)N2CCc3[nH]nc(C(=O)N(C)C)c3C2)c1 | 655 s |
| CCCCCNC(=O)C1CCCN(c2ncc(-c3ccccc3)cn2)C1 (stereo unspecified) | 1090 s |
| COC(=O)c1cc(C2CC2)nc2c1c(=O)n(Cc1cccc(F)c1)c(=O)n2C | 1130 s |
| Cc1ccc(C(=O)Nc2ccc3c(N4CCCCC4)ncnc3c2)s1 | 695 s |
| O=C(C1=CN(c2ccc3c(c2)OCCO3)c2cc(F)ccc2S1(=O)=O)N1CCOCC1 | 750 s |
| O=c1n(Cc2ccccc2F)nc2c(S(=O)(=O)N3CCOCC3)cccn12 | 745 s |
| CCn1c(=O)c(N2CCCC(C(=O)N3CCN(c4cccc(C)c4C)CC3)C2)nc2ccccc21 (stereo unspecified) | 1350 s |
| O=C(c1ccc(N2C(=O)CCS2(=O)=O)cc1)N1CCN(c2ccccn2)CC1 | 548 s |
| O=C(CN1C(=O)C2CCCCN2c2ccc(C(=O)N3CCCCC3)cc21)NC1CCCCC1 (stereo unspecified) | 889 s |
| COC(=O)c1ccc2c(=O)n(-c3ccc(OC)cc3)c(N3CCOCC3)nc2c1 | 896 s |

| Structure (SMILES) | RP-LC retention time |
| --- | --- |
| O=C(COc1ccc(Cl)cc1)NCc1ccc2c(c1)OCCCO2 | 870 s |
| Cc1nc(-c2cn(C(C)C)c3ncccc23)sc1C(=O)N1CCC(C)CC1 | 999 s |
| CCN(c1cccc(C)c1)S(=O)(=O)c1cc(-c2[nH]ncc2C(=O)N(C)C)oc1C | 792 s |
| COCCCn1c(=O)c2ccccc2n(Cc2nc(-c3ccc(C)cc3)no2)c1=O | 1060 s |
| COC(=O)c1cccc(-c2nc(C3CC(=O)N(c4ccc(F)cc4)C3)no2)c1 (stereo unspecified) | 884 s |
| NC(=O)CSc1nc(-c2ccccc2)c(NC(=O)c2cc3ccccc3o2)s1 | 797 s |
| O=C(Nc1ccc(F)cc1)NC1CCN(c2ccc(F)cc2)C1=O (stereo unspecified) | 783 s |
| Cc1ccc(Nc2c(-c3ccc(C)cc3)nc3ccc(Cl)cn23)cc1 | 890 s |
| N#Cc1ccccc1NC(=O)Cc1ccc2c(c1)OCO2 | 710 s |
| COc1cccc(CNC(=O)COc2ccc(NC(=O)C3CC3)cn2)c1OC | 591 s |
| Cc1oc(-c2[nH]ncc2C(=O)N2CCOCC2)cc1S(=O)(=O)NC1CC1 | 607 s |
| COc1ccc(NC(=O)NCC(c2cccnc2)c2cn(C)c3ccccc23)c(OC)c1 (stereo unspecified) | 697 s |
| CCn1c(=O)sc2cc(S(=O)(=O)N3CCC(C(=O)Nc4cccc(SC)c4)CC3)ccc21 | 975 s |
| CCc1cccc(NC(=O)C2CCN(S(=O)(=O)c3ccc4c(c3)sc(=O)n4C(C)C)CC2)c1 | 953 s |
| CCN(CC)CCCNC(=O)C1CCCN(C(=O)c2nnc(C(=O)Nc3ccc(F)cc3)s2)C1 (stereo unspecified) | 652 s |
| COCCNC(=O)C1CCN(C(=O)c2cc3oc(C)cc3n2Cc2c(F)cccc2Cl)CC1 | 804 s |
| COc1ccc(CN2C=C(C(=O)OCc3nc(-c4ccccc4F)no3)C(C)=NS2(=O)=O)cc1 | 1060 s |
| COc1ccc(NC(=O)Cn2cc(-c3ccccc3C)c(N3CCOCC3)n2)c(OC)c1 | 959 s |
| O=C(Nc1ccccc1Cl)N(CCc1cccs1)C1CC1 | 1120 s |
| O=C(Nc1ccc(F)cc1Cl)c1c(O)c2cccnc2n(-c2ccc(F)cc2)c1=O | 1300 s |
| CCOC(=O)N1CCC(c2nnc(Cc3ccc(OC)cc3)s2)CC1 | 788 s |
| Cc1nc(Nc2ccc(F)cn2)sc1C(=O)N1CCC(C(N)=O)(N2CCCCC2)CC1 | 590 s |

| Structure (SMILES) | RP-LC retention time |
| --- | --- |
| CCCCOc1ccc(C(=O)NC2(c3nc(-c4cccnc4)no3)CCCCC2)cc1 | 1170 s |
| CCn1ncc(NC(=O)COc2ccc(C)cc2)c(N2CCOCC2)c1=O | 764 s |
| Cc1nn(-c2ccc(C(=O)NCc3ccco3)cc2)c2c1C(=O)CC(C)(C)C2 | 756 s |
| CCOC(=O)c1cc(S(=O)(=O)N(C)CC(=O)N2CCN(c3ccccn3)CC2)cn1C | 614 s |
| COCCn1cc(C(=O)NC2CCCCCC2)c2nn(-c3ccccc3)c(=O)c-2c1 | 1010 s |
| CC1CCCCN1CCCNC(=O)CCC(=O)N1CCc2c(c(C(=O)N3CCCCC3)nn2C)C1 (stereo unspecified) | 578 s |
| O=C(Cc1ccc(Cl)cc1)Nc1ccc(N2CCN(C3CCCC3)C2=O)nc1 | 834 s |
| CN1CCN(C(=O)c2cc3n(n2)CC(C)(C(=O)NCc2ccccc2)N(C)C3=O)CC1 (stereo unspecified) | 572 s |
| Cc1nn(-c2cc(N3CCCC3)ncn2)c(C)c1CCC(=O)Nc1ccc(F)cc1Cl | 791 s |
| CCOC(=O)c1ccc(NC(=O)Cn2c(=O)cc(-c3nc(C)no3)c3ccccc32)cc1 | 903 s |
| COc1ccccc1CCNC(=O)CSC1CCc2ccccc2NC1=O (stereo unspecified) | 784 s |
| Cc1cc(C)n(Cc2nc(-c3ccc(NC(=O)c4sccc4C)cc3)oc2C)n1 | 951 s |
| Cn1ncc(N2CCCC(C(=O)O)C2)cc1=O (stereo unspecified) | 580 s |
| O=C(CN1C(=O)C2CCCCN2c2ccc(S(=O)(=O)N3CCCC3)cc21)NCc1cccs1 (stereo unspecified) | 882 s |
| Clc1ccc2nc(Nc3ncccn3)nc(-c3ccccc3)c2c1 | 747 s |
| Cc1nc(C2(C)CCN(S(=O)(=O)c3ccccc3Cl)CC2)no1 | 911 s |
| CC(C)NC(=O)N(C)Cc1nc2cc(C(=O)N3CCCC3)ccc2n1C | 550 s |
| Cc1ccc(-c2cc3c(=O)n(Cc4noc(CN5CCOCC5)n4)ccn3n2)cc1 | 733 s |
| Cc1ccc(/C=C/c2onc(C)c2S(=O)(=O)N2CCC(C(=O)NCC3CCCO3)CC2)cc1 (stereo unspecified) | 828 s |
| O=C1CCc2cc(NS(=O)(=O)Cc3ccccc3Cl)ccc2N1 | 783 s |
| CCc1nc(OCC(=O)NCCOC)c2c(-c3ccc(F)cc3)noc2n1 | 845 s |
| Cc1cc(NC(C)C)n2nc(-c3ccc(Cl)cc3)c(C)c2n1 | 761 s |
